{"source": "patent US11718650B2", "about": "“Immunogenic peptides and their use in immune disorders” (IMCYSE SA, priority 2006, dated 2023)", "molecules": {"B1": {"name": "Der p 2: Recombinant full-length Der p 2 produced in Pichia pastoris (protein, UniProt P49278 1-146, looked up)", "chain": "MMYKILCLSLLVAAVARDQVDVKDCANHEIKKVLVPGCHGSEPCIIHRGKPFQLEAVFEANQNTKTAKIEIKASIDGLEVDVPGIDPNACHYMKCPLVKGQQYDIKYTWNVPKIAPKSENVVVTVKVMGDDGVLACAIATHAKIRD", "modifications": "full-length recombinant, Pichia pastoris", "notes": "Recombinant full-length Der p 2 produced in Pichia pastoris"}}, "key": {"[1]": {"test_system": "p21-35-loaded Wehi cells", "test": "derivatisation of T cell clones after immunisation, screening for apoptosis of p21-35-loaded Wehi cells", "format": "in vivo, mouse", "experimental": "Derivatisation of regulatory T cell clones. BALB/c mice were immunised by 3 footpad injections of 20 μg/ml peptide mp21-35Asn in alum at 2 weeks intervals. Ten days after the last injection, spleen CD4+ T cells were stimulated with T cell depleted splenocytes from naïve mice in the presence of peptide mp21-35Asn. After 10 days, cells were restimulated in the same conditions but with 10 U/ml mouse II-2 (Roche). After the fifth restimulation, T cells were subcloned in the presence of 10 U/ml IL-2 by limiting dilution. The subsequent specific stimulations were carried out in the presence of 20 U/ml mouse IL-2. The G121 T cell line was derived as previously described (Janssens et al. (2003) J. Immunol. 171, 4604-4612.\nT cell clones were derived for phenotypic analysis from the spleen of mice injected with either mp21-35Asn in alum, mp21-35Asn in CFA/IFA (complete or incomplete Freund adjuvant), Der p 2 or saline as a control. A total of 17 clones were obtained, which expansion was fully dependent of addition of IL-2. These clones were maintained at rest for 10 days before assessing expression of CD25. Positive clones were then screened for their capacity to induce apoptosis of p21-35-loaded Wehi cells using annexin V binding as readout."}, "[2]": {"test_system": "WEHI cells", "test": "apoptosis of peptide-loaded WEHI cells by cytolytic T cell clones, with inhibitors", "format": "cell-based, mouse", "conditions": "two CFSE-labelled populations, G121 Treg, 18 hours", "experimental": "For inhibition of GZ-B activity, Z-AAD-CMK (Calbiochem) or 3,4-dichloroiso-coumarin (DCIC) (SIGMA) were added at indicated concentrations during all the co-culture period.\nExperiments were carried out with p21-35-loaded CD11c dendritic (FIG. 13b: left panel) or WEHI cells (FIG. 13b: right panel). Upon incubation with R3TB7 virtually all dendritic cells (DC) or Wehi cells were induced into apoptosis as measured by caspase 3 activation.\nApoptosis can be induced by either the Fas-FasL pathway or by secretion of cytotoxic granules containing granzymes. Attempts were made to inhibit each of these pathways. Addition of increasing concentrations of an antibody towards FasL, or of granzyme B inhibitors, to a cell culture containing p21-35 loaded WEHI cells and a cytolytic T cell clone, increased the number of surviving WEHI cells in a dose-dependent manner (FIG. 13c). In a number of experiments it was shown that the anti-FasL antibody restored up to 80% of WEHI cell survival.\nTo further ascertain that APC lysis required direct contact with cytolytic T cells through MHC class II presentation of p21-35, an experiment was carried out in which two identical populations of Wehi cells were loaded with either p21-35 or with an irrelevant peptide (p71-85). These two populations could be distinguished by differential CFSE labelling. It can be seen from FIG. 13e that, while WEHI cells presenting p21-35 were fully lysed, only 40% of p71-85-loaded cells were affected."}, "[3]": {"test_system": "WEHI cells", "test": "T cell clones from mice immunised with gp75-targeted Der p 1 peptides, lysis of WEHI cells", "format": "in vivo, mouse", "conditions": "20 μg SC on aluminium hydroxide, three injections", "experimental": "Groups of BALB/c mice were immunised subcutaneously (20 μg) with the experimental peptide [SEQ ID. NO: 10] or the control peptide [SEQ ID, NO: 11] adsorbed onto aluminium hydroxide. Three injections were performed at 2-week intervals. Ten days after the last immunisation, mice were sacrificed and CD4+ T cells prepared from the spleen using magnetic beads, CD4+ T cells (2×10^6 cells) were then stimulated in vitro by the Der p 1 T cell epitope (20 μg) presented by adherent spleen cells serving as antigen-presenting cells.\nTen days after stimulation the number of specific T cell lines obtained in each group was calculated by limiting dilution analysis. Each cell line was evaluated for its capacity to lyse WEHI cells, a B cell line selected for its efficacy in antigen-presentation by MHC class-II determinants, as described in Example 6. Only cells obtained from animals immunised with the peptide containing the glutaredoxin consensus sequence had acquired the capacity to lyse WEHI cells, and lysis occurs only in the presence of the cognate Der p 1 T cell epitope."}, "[4]": {"test_system": "BALB/c mice", "test": "T cell clones from BALB/c mice immunised with Der p 1 derived peptide", "format": "in vivo, mouse", "conditions": "20 μg subcutaneous, 3 injections", "experimental": "Two groups of BALB/c mice were immunised by the subcutaneous route with either 20 μg of peptide with a T cell epitope sequence of the allergen Der p1 (SNYCQIYPPNANKIR [SEQ ID. NO: 5]) or a modified version thereof CGFS SNYCQIYPPNANKIR [SEQ ID. NO: 7] having at the N-terminus the sequence CGFS [SEQ ID. NO: 6].\nAfter 3 injections, mice were sacrificed and CD4+ T cells were purified from the spleen and cloned by limiting dilution. T cell clones obtained from mice immunised with the SNYCQIYPPNANKIR [SEQ ID. […] Mice immunised with the peptide CGFS SNYCQIYPPNANKIR [SEQ ID."}, "[5]": {"test_system": "regulatory T cell clones with cytolytic activity", "test": "activation of cytolytic regulatory T cell clones by peptide-loaded APC", "format": "cell-based", "conditions": "versus C-x-x-S counterpart", "experimental": "Antigen-presenting cells were loaded with p21-35 in its native configuration [SEQ ID. NO: 2] or p21-35 in which serine in position 24 is substituted by cysteine […] [SEQ ID. NO: 29]. This substitution creates a redox moiety of the type C-x-x-C.\nSeveral regulatory T cell clones with cytolytic activity were incubated with APC. […] The granzymes are two of the key players in induction of apoptosis of target cells."}, "[6]": {"test_system": "BALB/c mice", "test": "beta-lactoglobulin allergy mouse model", "format": "in vivo", "experimental": "BALB/c mice are immunised by 2 SC injections with 20 μg of the peptide of sequence CHGC AQKKIIAEK [SEQ ID. NO: 30] in alum. This is followed 15 days later by intraperitoneal sensitisation to BLG (5 μg in alum), on 2 occasions at a fortnight interval. Alternatively, peptide administration is given 15 days after IP sensitisation to BLG.\nHypersensitivity to BLG is verified in the mouse by assessing bronchial hyperreactivity after intranasal administration of BLG. All mice are submitted to intranasal administration of 10 μg of BLG in saline 10 days after the last injections. A control group is included in which intraperitoneal sensitisation is carried out without peptide immunisation."}, "[7]": {"test_system": "BALB/c mice", "test": "adoptive transfer of cytolytic T cell clones in asthma elicited by nasal instillation of Der p 1", "format": "in vivo, mouse", "experimental": "BALB/c mice were submitted to 2 series of 3 daily nasal instillations separated by 1 week, using 100 μg of the Der p 1 allergen. The day after the last nasal instillation, mice are sacrificed and checked for the presence of alterations characteristic of allergic asthma in the bronchoalveolar space and lung.\nTwo additional groups of mice are adoptively transferred with cytolytic T cell clones obtained as described in Example 11 using the Der p 1 peptide with the motif, either prior to or after the first series of nasal instillations.\nBALF differential cell counts were carried out 4 days after the last series of nasal instillations (6 BALB/c per group). Cells were obtained by bronchoalveolar lavage of lungs and identified on cytospins as macrophages, neutrophils, eosinophils or lymphocytes. Mice received 2 series of 3 nasal instillations with either 100 μg Der p 1 (model) or NaCl (negative).\nBroncho-alveolar lavage fluids were tested for the presence of cytokines (Table 6)."}, "[8]": {"test_system": "G221N", "test": "peptide processing assay with effector T cell clone G221N", "format": "cell-based, mouse", "conditions": "NaN3/deoxyglucose, colchicine, chloroquine"}, "[9]": {"conditions": "prior to or after sensitisation"}}, "note": "No end group written: not given here.", "data": [{"molecule": "p71-85: alternative major T cell epitope (p71-85) located on Der p 2 (NACHYMKCPLVKGQQ; UniProt P49278 88-102, looked up, fragment) [reference compound]", "values": [{"measurement": "induction of cytolytic Tregs towards the epitope", "setting": "[1]; mouse, in vivo", "result": "not possible to induce cytolytic Tregs"}, {"measurement": "lysis of WEHI cells loaded with the peptide", "setting": "[2]", "result": 40, "unit": "%"}]}, {"molecule": "SNYCQIYPPNANKIR SGGSGGSGG IITIAVVAALLLVAAIFGVASCLIRSRSTKNEANQPLLTDS [SEQ ID. NO: 11, reference compound]", "values": [{"measurement": "T cell clones with Treg (cytotoxic) properties derived from immunised mice", "setting": "[3]", "result": "not from mice that received the control peptide"}]}, {"molecule": "CGFS SNYCQIYPPNANKIR SGGSGGSGG IITIAVVAALLLVAAIFGVASCLIRSRSTKNEANQPLLTDS [SEQ ID. NO: 10]", "values": [{"measurement": "T cell clones with Treg (cytotoxic) properties derived from immunised mice", "setting": "[3]", "result": "All T cell clones obtained after treatment with the construct and re-stimulated in vitro were cytotoxic"}]}, {"molecule": "SNYCQIYPPNANKIR (dominant T cell epitope of Der p 1 allergen) [SEQ ID. NO: 5, reference compound]", "values": [{"measurement": "type of T cell clones obtained from immunised mice", "setting": "[4]", "result": "produced effector CD4+ T cells"}]}, {"molecule": "CHGCEPCIIHRGKPF (p21-35 peptide of Der p2 allergen mutated at residue 24) [SEQ ID. NO: 29]", "values": [{"measurement": "T cell activation assessed by cytokine production", "setting": "[5]", "result": "higher degree of T cell activation"}, {"measurement": "transcription of mRNA for FasL and granzymes", "setting": "[5]", "result": "more than its C-x-x-S counterparts"}]}, {"molecule": "CHGC AQKKIIAEK (CHGCAQKKIIAEK; thioredox motif sequence CHGC linked to T cell epitope of Bovine beta-lactoglobulin (BLG)) [SEQ ID. NO: 30]", "values": [{"measurement": "capacity to react to BLG nasal instillation", "setting": "[6]; 20 μg in alum, 2 SC injections prior to or after sensitisation", "result": "completely lost the capacity to react to BLG nasal instillation"}, {"measurement": "eosinophils in bronchoalveolar lavage fluid", "setting": "[6]; [9]", "result": "lack of eosinophils"}, {"measurement": "hyperreactivity upon challenge with methacholine", "setting": "[6]; [9]", "result": "absence of hyperreactivity"}]}, {"molecule": "QYIKANSKFIGITELGGCHGSEPCNIHRGKPF (not fully specified (residues 18, 24); cysteine pairing not given here) [mp21-35Asn]", "values": [{"measurement": "cytolytic clones among CD4+CD25+ T cell clones", "setting": "[1]; immunised in CFA/IFA", "result": "0/5"}, {"measurement": "cytolytic clones among CD4+CD25+ T cell clones", "setting": "[1]; immunised in alum", "result": "8/8"}]}, {"molecule": "CGFSSNYCQIYPPNANKIR (glutaredoxin-like consensus sequence and dominant T cell epitope of the Der p 1 allergen) [SEQ ID. NO: 7]", "values": [{"measurement": "type of T cell clones obtained from immunised mice", "setting": "[4]", "result": "produced T cell clones with cytolytic properties"}, {"measurement": "BAL IFN-gamma", "setting": "[7]; Prevention", "result": 0, "unit": "pg/mL"}, {"measurement": "BAL IL-2", "setting": "[7]; Prevention", "result": 0.7, "unit": "pg/mL"}, {"measurement": "BAL IL-4", "setting": "[7]; Prevention", "result": 0, "unit": "pg/mL"}, {"measurement": "BAL IL-5", "setting": "[7]; Prevention", "result": 0.3, "unit": "pg/mL"}, {"measurement": "BAL IL-10", "setting": "[7]; Prevention", "result": 10, "unit": "pg/mL"}, {"measurement": "BAL IL-13", "setting": "[7]; Prevention", "result": 0.2, "unit": "pg/mL"}, {"measurement": "BAL TGF-beta", "setting": "[7]; Prevention", "result": 5.8, "unit": "pg/mL"}, {"measurement": "BAL TNF-alpha", "setting": "[7]; Prevention", "result": 0.7, "unit": "pg/mL"}, {"measurement": "BAL IFN-gamma", "setting": "[7]; Suppression", "result": 0, "unit": "pg/mL"}, {"measurement": "BAL IL-2", "setting": "[7]; Suppression", "result": 0.8, "unit": "pg/mL"}, {"measurement": "BAL IL-4", "setting": "[7]; Suppression", "result": 0.7, "unit": "pg/mL"}, {"measurement": "BAL IL-5", "setting": "[7]; Suppression", "result": 0.5, "unit": "pg/mL"}, {"measurement": "BAL IL-10", "setting": "[7]; Suppression", "result": 2, "unit": "pg/mL"}, {"measurement": "BAL IL-13", "setting": "[7]; Suppression", "result": 0.3, "unit": "pg/mL"}, {"measurement": "BAL TGF-beta", "setting": "[7]; Suppression", "result": 0, "unit": "pg/mL"}, {"measurement": "BAL TNF-alpha", "setting": "[7]; Suppression", "result": 0, "unit": "pg/mL"}]}, {"molecule": "B1", "values": [{"measurement": "requirement for internalisation, fusion with and acidification of late endosomes", "setting": "[8]", "result": "required internalisation into antigen-presenting cells"}, {"measurement": "cytolytic clones among CD4+CD25+ T cell clones", "setting": "[1]; mice immunised with Der p 2", "result": "0/4"}]}]}
